In the kinase profiling compilation of Christmann-Franck et al. (2016):

Assays:
Test in all cases: KINOMEscan competition binding
CAMK2D (human) = CAMK2D (human) (UniProt Q13557)
PIK3CA (human) = PIK3CA (human) (UniProt P42336)
HIPK4 (human) = HIPK4 (human) (UniProt Q8NE63)
[1] = test system: ABL1 (human), P00519 [E255K]
PRKD2 (human) = PRKD2 (human) (UniProt Q9BZL6)
MAP3K7 (human) = MAP3K7 (human) (UniProt O43318)
STK16 (human) = STK16 (human) (UniProt O75716)
EPHA2 (human) = EPHA2 (human) (UniProt P29317)
GSK3B (human) = GSK3B (human) (UniProt P49841)
BMPR1B (human) = BMPR1B (human) (UniProt O00238)
SRPK2 (human) = SRPK2 (human) (UniProt P78362)
MYLK4 (human) = MYLK4 (human) (UniProt Q86YV6)
SRPK1 (human) = SRPK1 (human) (UniProt Q96SB4)
Sequence of SRPK1 (human) (Q96SB4 whole entry, looked up): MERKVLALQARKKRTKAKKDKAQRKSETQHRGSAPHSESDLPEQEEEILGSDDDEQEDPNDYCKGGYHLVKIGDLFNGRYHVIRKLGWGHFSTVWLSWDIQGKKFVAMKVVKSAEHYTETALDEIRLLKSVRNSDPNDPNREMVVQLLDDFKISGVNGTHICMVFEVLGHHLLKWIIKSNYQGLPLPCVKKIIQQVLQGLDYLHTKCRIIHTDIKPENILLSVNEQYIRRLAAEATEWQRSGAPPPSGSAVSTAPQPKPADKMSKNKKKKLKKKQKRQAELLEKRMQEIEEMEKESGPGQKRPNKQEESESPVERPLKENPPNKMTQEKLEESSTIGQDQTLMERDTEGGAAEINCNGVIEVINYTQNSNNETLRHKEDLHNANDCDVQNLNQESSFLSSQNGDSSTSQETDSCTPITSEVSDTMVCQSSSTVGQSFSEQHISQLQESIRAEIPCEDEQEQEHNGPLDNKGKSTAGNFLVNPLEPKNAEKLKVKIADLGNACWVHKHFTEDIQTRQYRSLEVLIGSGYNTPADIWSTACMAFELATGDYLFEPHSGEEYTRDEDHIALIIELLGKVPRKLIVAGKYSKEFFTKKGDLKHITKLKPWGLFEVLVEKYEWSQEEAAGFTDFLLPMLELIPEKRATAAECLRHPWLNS

RIOK2 (human) = RIOK2 (human) (UniProt Q9BVS4)
Sequence of RIOK2 (human) (Q9BVS4 whole entry, looked up): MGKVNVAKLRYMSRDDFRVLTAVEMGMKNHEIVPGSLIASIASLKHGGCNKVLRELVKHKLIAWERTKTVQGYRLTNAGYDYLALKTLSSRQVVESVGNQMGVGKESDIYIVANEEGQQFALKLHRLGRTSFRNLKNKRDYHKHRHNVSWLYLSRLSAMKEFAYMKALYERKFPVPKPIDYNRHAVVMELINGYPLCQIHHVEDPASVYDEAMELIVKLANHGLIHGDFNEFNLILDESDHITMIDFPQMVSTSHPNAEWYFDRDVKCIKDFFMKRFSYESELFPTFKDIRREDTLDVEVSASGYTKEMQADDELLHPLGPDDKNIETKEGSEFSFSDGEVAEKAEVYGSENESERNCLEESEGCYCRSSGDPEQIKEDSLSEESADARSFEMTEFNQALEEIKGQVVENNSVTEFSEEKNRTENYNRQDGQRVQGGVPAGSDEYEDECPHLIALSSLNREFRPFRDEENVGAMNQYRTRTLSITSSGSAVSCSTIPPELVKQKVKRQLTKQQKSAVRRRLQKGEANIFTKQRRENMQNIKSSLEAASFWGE

LATS2 (human) = LATS2 (human) (UniProt Q9NRM7)
ZAP70 (human) = ZAP70 (human) (UniProt P43403)
LIMK1 (human) = LIMK1 (human) (UniProt P53667)
MTOR (human) = MTOR (human) (UniProt P42345)
SRPK3 (human) = SRPK3 (human) (UniProt Q9UPE1)
NUAK1 (human) = NUAK1 (human) (UniProt O60285)
Sequence of NUAK1 (human) (O60285 whole entry, looked up): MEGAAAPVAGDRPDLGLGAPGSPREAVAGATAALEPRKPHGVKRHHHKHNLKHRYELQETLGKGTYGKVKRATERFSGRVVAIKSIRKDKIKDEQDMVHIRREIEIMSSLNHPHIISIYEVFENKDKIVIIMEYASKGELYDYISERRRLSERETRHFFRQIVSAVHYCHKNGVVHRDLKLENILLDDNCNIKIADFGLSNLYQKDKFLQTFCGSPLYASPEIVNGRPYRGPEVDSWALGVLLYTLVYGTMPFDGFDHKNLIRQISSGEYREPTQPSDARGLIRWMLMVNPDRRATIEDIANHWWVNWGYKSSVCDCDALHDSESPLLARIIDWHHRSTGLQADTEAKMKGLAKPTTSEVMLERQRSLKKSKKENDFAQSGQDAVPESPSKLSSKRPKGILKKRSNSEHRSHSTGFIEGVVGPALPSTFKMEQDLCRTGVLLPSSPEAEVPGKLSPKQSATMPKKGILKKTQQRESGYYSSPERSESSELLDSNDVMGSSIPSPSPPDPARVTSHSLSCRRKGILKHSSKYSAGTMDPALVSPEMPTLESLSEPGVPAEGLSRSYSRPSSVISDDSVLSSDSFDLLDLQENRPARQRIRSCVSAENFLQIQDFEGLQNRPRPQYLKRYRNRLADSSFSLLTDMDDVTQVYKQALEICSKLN

STK11 (human) = STK11 (human) (UniProt Q15831)
MAP3K15 (human) = MAP3K15 (human) (UniProt Q6ZN16)
SYK (human) = SYK (human) (UniProt P43405)
MAP3K11 (human) = MAP3K11 (human) (UniProt Q16584)
[2] = test system: KIT (human), P10721 [L576P]
CDK7 (human) = CDK7 (human) (UniProt P50613)
TEK (human) = TEK (human) (UniProt Q02763)
Sequence of TEK (human) (Q02763 whole entry, looked up): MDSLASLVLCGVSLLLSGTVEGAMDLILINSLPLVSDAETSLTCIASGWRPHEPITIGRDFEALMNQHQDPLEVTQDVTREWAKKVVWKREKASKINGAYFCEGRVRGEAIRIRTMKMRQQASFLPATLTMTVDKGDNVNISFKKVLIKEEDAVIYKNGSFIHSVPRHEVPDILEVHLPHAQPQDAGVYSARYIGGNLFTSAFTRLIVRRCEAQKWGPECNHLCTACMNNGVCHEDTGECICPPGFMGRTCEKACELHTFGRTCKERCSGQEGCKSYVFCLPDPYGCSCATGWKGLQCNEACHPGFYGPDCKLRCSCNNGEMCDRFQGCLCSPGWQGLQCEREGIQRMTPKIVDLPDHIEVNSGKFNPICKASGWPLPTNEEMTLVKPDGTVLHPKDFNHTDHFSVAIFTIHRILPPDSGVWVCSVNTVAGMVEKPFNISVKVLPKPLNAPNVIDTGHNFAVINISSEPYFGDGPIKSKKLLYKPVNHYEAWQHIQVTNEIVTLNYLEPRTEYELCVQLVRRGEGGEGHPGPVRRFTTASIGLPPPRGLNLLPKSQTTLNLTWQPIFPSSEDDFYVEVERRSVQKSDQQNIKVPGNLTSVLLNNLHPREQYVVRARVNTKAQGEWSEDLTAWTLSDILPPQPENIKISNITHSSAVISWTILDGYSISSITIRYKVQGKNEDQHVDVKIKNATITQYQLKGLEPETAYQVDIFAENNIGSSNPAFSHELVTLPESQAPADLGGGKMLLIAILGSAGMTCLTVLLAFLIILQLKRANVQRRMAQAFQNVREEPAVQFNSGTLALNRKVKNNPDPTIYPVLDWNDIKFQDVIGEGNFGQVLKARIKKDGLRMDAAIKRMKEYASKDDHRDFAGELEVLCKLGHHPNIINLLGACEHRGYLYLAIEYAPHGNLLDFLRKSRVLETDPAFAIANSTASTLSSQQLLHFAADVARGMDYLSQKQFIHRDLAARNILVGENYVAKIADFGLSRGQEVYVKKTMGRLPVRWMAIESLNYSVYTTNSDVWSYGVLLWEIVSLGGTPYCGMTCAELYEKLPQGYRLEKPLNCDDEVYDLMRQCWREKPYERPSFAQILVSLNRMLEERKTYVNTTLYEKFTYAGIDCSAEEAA

PTK2B (human) = PTK2B (human) (UniProt Q14289)
TESK1 (human) = TESK1 (human) (UniProt Q15569)
NLK (human) = NLK (human) (UniProt Q9UBE8)
TAOK2 (human) = TAOK2 (human) (UniProt Q9UL54)
MAP3K6 (human) = MAP3K6 (human) (UniProt O95382)
RIPK2 (human) = RIPK2 (human) (UniProt O43353)
Sequence of RIPK2 (human) (O43353 whole entry, looked up): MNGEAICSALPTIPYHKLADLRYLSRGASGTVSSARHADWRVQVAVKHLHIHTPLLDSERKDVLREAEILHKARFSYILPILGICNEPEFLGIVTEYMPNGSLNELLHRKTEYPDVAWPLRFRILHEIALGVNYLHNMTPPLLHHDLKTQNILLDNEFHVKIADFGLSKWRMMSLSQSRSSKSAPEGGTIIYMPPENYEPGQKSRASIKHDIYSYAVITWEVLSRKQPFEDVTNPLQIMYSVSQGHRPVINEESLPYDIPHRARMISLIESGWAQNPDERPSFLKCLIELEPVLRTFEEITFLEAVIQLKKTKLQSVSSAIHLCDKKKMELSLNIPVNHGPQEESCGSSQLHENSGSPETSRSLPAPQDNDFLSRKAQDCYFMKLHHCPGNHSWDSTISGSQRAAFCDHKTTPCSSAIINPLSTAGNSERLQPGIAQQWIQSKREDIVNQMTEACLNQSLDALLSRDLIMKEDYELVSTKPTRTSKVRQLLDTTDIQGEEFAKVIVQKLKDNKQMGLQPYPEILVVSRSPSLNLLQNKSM

CAMKK2 (human) = CAMKK2 (human) (UniProt Q96RR4)
PI4KB (human) = PI4KB (human) (UniProt Q9UBF8)
PDGFRB (human) = PDGFRB (human) (UniProt P09619)
FGFR3 (human) = FGFR3 (human) (UniProt P22607)
RPS6KA5 KD1 (human) = RPS6KA5 KD1 (human) (UniProt O75582)
MARK4 (human) = MARK4 (human) (UniProt Q96L34)
[3] = test system: ABL1 (human), P00519 [Y253F]
EPHB2 (human) = EPHB2 (human) (UniProt P29323)
Sequence of EPHB2 (human) (P29323 whole entry, looked up): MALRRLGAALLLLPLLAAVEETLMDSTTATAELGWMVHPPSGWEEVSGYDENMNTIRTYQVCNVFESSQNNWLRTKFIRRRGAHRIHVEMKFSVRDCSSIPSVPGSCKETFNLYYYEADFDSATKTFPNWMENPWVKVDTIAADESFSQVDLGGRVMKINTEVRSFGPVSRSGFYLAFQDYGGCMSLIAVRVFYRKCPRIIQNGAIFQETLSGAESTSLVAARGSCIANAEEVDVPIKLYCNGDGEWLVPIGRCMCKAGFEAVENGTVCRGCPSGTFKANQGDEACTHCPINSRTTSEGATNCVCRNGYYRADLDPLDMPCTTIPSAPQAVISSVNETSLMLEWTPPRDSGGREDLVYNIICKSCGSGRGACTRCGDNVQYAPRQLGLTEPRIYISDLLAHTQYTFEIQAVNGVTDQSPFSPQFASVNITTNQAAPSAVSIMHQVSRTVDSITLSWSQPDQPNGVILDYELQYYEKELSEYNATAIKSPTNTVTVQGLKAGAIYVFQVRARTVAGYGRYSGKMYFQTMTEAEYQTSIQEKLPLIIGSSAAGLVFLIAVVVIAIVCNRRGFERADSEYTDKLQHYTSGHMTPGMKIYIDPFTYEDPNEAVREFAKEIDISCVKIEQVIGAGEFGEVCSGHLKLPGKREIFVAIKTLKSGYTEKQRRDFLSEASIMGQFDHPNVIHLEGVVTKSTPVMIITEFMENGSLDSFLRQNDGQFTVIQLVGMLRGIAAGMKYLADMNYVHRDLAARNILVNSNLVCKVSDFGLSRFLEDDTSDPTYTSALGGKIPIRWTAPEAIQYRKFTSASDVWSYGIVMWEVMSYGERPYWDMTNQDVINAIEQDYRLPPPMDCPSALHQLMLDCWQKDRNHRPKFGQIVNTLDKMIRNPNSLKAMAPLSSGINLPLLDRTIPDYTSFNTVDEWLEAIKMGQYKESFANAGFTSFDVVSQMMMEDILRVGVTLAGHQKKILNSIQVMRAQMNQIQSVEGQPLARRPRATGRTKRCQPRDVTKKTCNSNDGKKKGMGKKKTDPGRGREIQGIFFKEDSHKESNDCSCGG

PAK4 (human) = PAK4 (human) (UniProt O96013)
STK17A (human) = STK17A (human) (UniProt Q9UEE5)
Sequence of STK17A (human) (Q9UEE5 whole entry, looked up): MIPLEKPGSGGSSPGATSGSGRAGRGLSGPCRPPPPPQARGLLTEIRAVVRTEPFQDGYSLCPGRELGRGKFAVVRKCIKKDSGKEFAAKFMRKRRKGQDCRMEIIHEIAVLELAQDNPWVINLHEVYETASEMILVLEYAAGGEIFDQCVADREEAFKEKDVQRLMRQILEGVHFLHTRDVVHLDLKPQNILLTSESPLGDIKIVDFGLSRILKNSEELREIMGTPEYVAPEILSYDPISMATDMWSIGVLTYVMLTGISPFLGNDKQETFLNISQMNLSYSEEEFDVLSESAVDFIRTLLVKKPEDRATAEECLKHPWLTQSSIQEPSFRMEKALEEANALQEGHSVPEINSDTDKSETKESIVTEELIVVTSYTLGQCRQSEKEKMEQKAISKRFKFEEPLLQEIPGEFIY

Q: Which kinase still bound, per cent of control (CAMK2D (human); compound 10.0 µM) does the source give for `Cc1ccc(NC(=O)c2ccc(NC(=O)/C=C/CN(C)C)cc2)cc1Nc1nccc(-c2cccnc2)n1` here?
A: 100%

Q: What about the kinase still bound, per cent of control (PIK3CA (human); compound 10.0 µM) of the same compound?
A: 100%

Q: And the kinase still bound, per cent of control (HIPK4 (human); compound 10.0 µM)?
A: 18%

Q: And the kinase still bound, per cent of control ([1]; compound 10.0 µM)?
A: 64%

Q: And the kinase still bound, per cent of control (PRKD2 (human); compound 10.0 µM)?
A: 100%

Q: And the kinase still bound, per cent of control (MAP3K7 (human); compound 10.0 µM)?
A: 61%

Q: And the kinase still bound, per cent of control (STK16 (human); compound 10.0 µM)?
A: 34%

Q: And the kinase still bound, per cent of control (EPHA2 (human); compound 10.0 µM)?
A: 90%

Q: And the kinase still bound, per cent of control (GSK3B (human); compound 10.0 µM)?
A: 87%

Q: And the kinase still bound, per cent of control (BMPR1B (human); compound 10.0 µM)?
A: 79%

Q: What about the kinase still bound, per cent of control (SRPK2 (human); compound 10.0 µM) of the same compound?
A: 100%

Q: And the kinase still bound, per cent of control (MYLK4 (human); compound 10.0 µM)?
A: 55%

Q: What about the kinase still bound, per cent of control (SRPK1 (human); compound 10.0 µM) of the same compound?
A: 74%

Q: What about the kinase still bound, per cent of control (RIOK2 (human); compound 10.0 µM) of the same compound?
A: 3.2%

Q: What about the kinase still bound, per cent of control (LATS2 (human); compound 10.0 µM) of the same compound?
A: 100%

Q: And the kinase still bound, per cent of control (ZAP70 (human); compound 10.0 µM)?
A: 56%

Q: And the kinase still bound, per cent of control (LIMK1 (human); compound 10.0 µM)?
A: 85%

Q: And the kinase still bound, per cent of control (MTOR (human); compound 10.0 µM)?
A: 100%

Q: What about the kinase still bound, per cent of control (SRPK3 (human); compound 10.0 µM) of the same compound?
A: 76%

Q: And the kinase still bound, per cent of control (NUAK1 (human); compound 10.0 µM)?
A: 100%

Q: What about the kinase still bound, per cent of control (STK11 (human); compound 10.0 µM) of the same compound?
A: 92%

Q: And the kinase still bound, per cent of control (MAP3K15 (human); compound 10.0 µM)?
A: 92%

Q: What about the kinase still bound, per cent of control (SYK (human); compound 10.0 µM) of the same compound?
A: 62%

Q: And the kinase still bound, per cent of control (MAP3K11 (human); compound 10.0 µM)?
A: 100%

Q: And the kinase still bound, per cent of control ([2]; compound 10.0 µM)?
A: 0%

Q: And the kinase still bound, per cent of control (CDK7 (human); compound 10.0 µM)?
A: 68%

Q: What about the kinase still bound, per cent of control (TEK (human); compound 10.0 µM) of the same compound?
A: 93%

Q: What about the kinase still bound, per cent of control (PTK2B (human); compound 10.0 µM) of the same compound?
A: 100%

Q: And the kinase still bound, per cent of control (TESK1 (human); compound 10.0 µM)?
A: 100%

Q: What about the kinase still bound, per cent of control (NLK (human); compound 10.0 µM) of the same compound?
A: 100%

Q: What about the kinase still bound, per cent of control (TAOK2 (human); compound 10.0 µM) of the same compound?
A: 61%

Q: What about the kinase still bound, per cent of control (MAP3K6 (human); compound 10.0 µM) of the same compound?
A: 100%

Q: And the kinase still bound, per cent of control (RIPK2 (human); compound 10.0 µM)?
A: 67%

Q: And the kinase still bound, per cent of control (CAMKK2 (human); compound 10.0 µM)?
A: 56%

Q: What about the kinase still bound, per cent of control (PI4KB (human); compound 10.0 µM) of the same compound?
A: 40%

Q: What about the kinase still bound, per cent of control (PDGFRB (human); compound 10.0 µM) of the same compound?
A: 0%

Q: What about the kinase still bound, per cent of control (FGFR3 (human); compound 10.0 µM) of the same compound?
A: 100%

Q: And the kinase still bound, per cent of control (RPS6KA5 KD1 (human); compound 10.0 µM)?
A: 90%

Q: And the kinase still bound, per cent of control (MARK4 (human); compound 10.0 µM)?
A: 77%

Q: What about the kinase still bound, per cent of control ([3]; compound 10.0 µM) of the same compound?
A: 39%

Q: And the kinase still bound, per cent of control (EPHB2 (human); compound 10.0 µM)?
A: 100%

Q: What about the kinase still bound, per cent of control (PAK4 (human); compound 10.0 µM) of the same compound?
A: 84%

Q: And the kinase still bound, per cent of control (STK17A (human); compound 10.0 µM)?
A: 1.6%

Q: Which results are given for `CN(C)C/C=C/C(=O)Nc1cccc(C(=O)Nc2ccc(Nc3nccc(-c4c(-c5ccccc5)nn5ccccc45)n3)cc2)c1`?
A: kinase still bound, per cent of control (CAMK2D (human); compound 1.0 µM): 100%; kinase still bound, per cent of control (PIK3CA (human); compound 1.0 µM): 99%; kinase still bound, per cent of control (HIPK4 (human); compound 1.0 µM): 70%; kinase still bound, per cent of control ([1]; compound 1.0 µM): 12%; kinase still bound, per cent of control (PRKD2 (human); compound 1.0 µM): 15%; kinase still bound, per cent of control (MAP3K7 (human); compound 1.0 µM): 47%; kinase still bound, per cent of control (STK16 (human); compound 1.0 µM): 37%; kinase still bound, per cent of control (EPHA2 (human); compound 1.0 µM): 76%; kinase still bound, per cent of control (GSK3B (human); compound 1.0 µM): 49%; kinase still bound, per cent of control (BMPR1B (human); compound 1.0 µM): 47%; kinase still bound, per cent of control (SRPK2 (human); compound 1.0 µM): 85%; kinase still bound, per cent of control (MYLK4 (human); compound 1.0 µM): 100%; kinase still bound, per cent of control (SRPK1 (human); compound 1.0 µM): 90%; kinase still bound, per cent of control (RIOK2 (human); compound 1.0 µM): 27%; kinase still bound, per cent of control (LATS2 (human); compound 1.0 µM): 78%; kinase still bound, per cent of control (ZAP70 (human); compound 1.0 µM): 96%; kinase still bound, per cent of control (LIMK1 (human); compound 1.0 µM): 100%; kinase still bound, per cent of control (MTOR (human); compound 1.0 µM): 100%; kinase still bound, per cent of control (SRPK3 (human); compound 1.0 µM): 100%; kinase still bound, per cent of control (NUAK1 (human); compound 1.0 µM): 83%; kinase still bound, per cent of control (STK11 (human); compound 1.0 µM): 93%; kinase still bound, per cent of control (MAP3K15 (human); compound 1.0 µM): 47%; kinase still bound, per cent of control (SYK (human); compound 1.0 µM): 82%; kinase still bound, per cent of control (MAP3K11 (human); compound 1.0 µM): 71%; kinase still bound, per cent of control ([2]; compound 1.0 µM): 3%; kinase still bound, per cent of control (CDK7 (human); compound 1.0 µM): 83%; kinase still bound, per cent of control (TEK (human); compound 1.0 µM): 67%; kinase still bound, per cent of control (PTK2B (human); compound 1.0 µM): 85%; kinase still bound, per cent of control (TESK1 (human); compound 1.0 µM): 99%; kinase still bound, per cent of control (NLK (human); compound 1.0 µM): 12%; kinase still bound, per cent of control (TAOK2 (human); compound 1.0 µM): 31%; kinase still bound, per cent of control (MAP3K6 (human); compound 1.0 µM): 100%; kinase still bound, per cent of control (RIPK2 (human); compound 1.0 µM): 12%; kinase still bound, per cent of control (CAMKK2 (human); compound 1.0 µM): 100%; kinase still bound, per cent of control (PI4KB (human); compound 1.0 µM): 69%; kinase still bound, per cent of control (PDGFRB (human); compound 1.0 µM): 0.2%; kinase still bound, per cent of control (FGFR3 (human); compound 1.0 µM): 100%; kinase still bound, per cent of control (RPS6KA5 KD1 (human); compound 1.0 µM): 100%; kinase still bound, per cent of control (MARK4 (human); compound 1.0 µM): 100%; kinase still bound, per cent of control ([3]; compound 1.0 µM): 1.6%; kinase still bound, per cent of control (EPHB2 (human); compound 1.0 µM): 67%; kinase still bound, per cent of control (PAK4 (human); compound 1.0 µM): 91%; kinase still bound, per cent of control (STK17A (human); compound 1.0 µM): 93%
